Experimental findings from patent US20100062994A1, “Adenosine Receptor Antagonists” (SANTARIS PHARMA A/S, priority 2006, published 2010) are described below.

pIC50: −log10 of the molar value.

In the assay the target is T1, A3 human recombinant receptor (Homo sapiens, UniProt P0DMS8).
T1 sequence (P0DMS8 1-318): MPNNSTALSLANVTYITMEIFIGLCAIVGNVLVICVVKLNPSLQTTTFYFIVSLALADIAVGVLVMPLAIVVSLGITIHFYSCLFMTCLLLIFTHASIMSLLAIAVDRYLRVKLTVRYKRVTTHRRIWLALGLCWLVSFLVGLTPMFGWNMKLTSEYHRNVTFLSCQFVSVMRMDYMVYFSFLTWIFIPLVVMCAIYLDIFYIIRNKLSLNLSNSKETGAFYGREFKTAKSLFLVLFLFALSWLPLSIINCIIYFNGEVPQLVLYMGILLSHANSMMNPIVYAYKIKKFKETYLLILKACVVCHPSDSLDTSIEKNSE
Nature of the assay: AequoScreen adenosine A3 receptor assay, antagonist mode (luminescence, against reference agonist IB-MECA). It is filed as cell-based. The note with it: AequoScreen cells expressing A3 human recombinant receptor and Gα16; inhibition of IB-MECA at EC80; duplicate determinations at 8 concentrations. As for the experimental part:
AequoScreen™ (Euroscreen, Belgium) cell lines expressing the A3 human recombinant receptor and the promiscuous G protein Gα16 were used throughout the study. AequoScreen™ cells were cultured following recommended conditions for at least one week prior to the test. The day before the test, cells were harvested with PBS-EDTA, washed and re-suspended in BSA-DMEM12 (Dulbecco's Modified Eagles Medium—Ham's F12 with 0.1% BSA). Suspended cells were then incubated at room temperature with coelenterazine h overnight. For agonist and antagonist testing, 50 μl of the cell suspension were injected onto 50 μl of the test compound or control in 96-well plates, and the resulting emission of light measured for the determination of cell activation. After the first reading, and following an incubation time of 15-30 min, 100 μl of the reference agonist (IB-MECA) at a concentration equal to the EC80 of the day of the experiment were injected onto the cell suspension containing the test compounds. The resulting emission of light was measured for the determination of antagonistic effects. Light emission for agonist and antagonist tests was recorded using a Hamamatsu FDSS-6000 reader. For agonist data, percentages of activation were calculated on the basis of the activation (luminescence data) induced by the reference agonist at a saturating concentration (EC100). For antagonist data, percentages of inhibition were calculated on the basis of the activation (luminescence data) induced by the reference agonist at a concentration equal to the EC80. The test compounds were tested as duplicate determinations at 8 concentrations of 100, 10, 1, 0.1 μM and 10, 1, 0.1, and 0.01 nM for agonist activity and 50, 5, 0.5, 0.05 μM and 5, 0.5, 0.05, and 0.005 nM for antagonist activity. Dose-response data, EC50/IC50, from test compound was analyzed with XLfit (IDBS) software.
This assay may be used to determine the IC50 value for adenosine A3 antagonists according to the invention (see Example 42).
On to `OCC12CNC(C(n3cnc4c(NCc5cccc(I)c5)ncnc43)O1)C2O` (single isomer, unassigned) [SPN0234], for which the pIC50 is 8.09.
The value for `OCC12CNC(C(n3cnc4c(NCc5cccc(I)c5)ncnc43)O1)C2O` (single isomer, unassigned) [SPN0240] was 7.03.
For the molecule `OC[C@@]12CO[C@@H]([C@H](n3cnc4c(NCc5cccc(I)c5)ncnc43)O1)[C@@H]2O` [SPN0169, (1S,3R,4R,7S)-7-Hydroxy-1-hydroxymethyl-3-(N6-(3-iodobenzyl)-adenin-9-yl)-2,5-dioxabicyclo[2:2:1]heptane], the pIC50 is 6.81.
With `OC[C@@]12CO[C@@H]([C@H](n3cnc4c(NCc5cccc(I)c5)nc(Cl)nc43)O1)[C@@H]2O` [SPN0174, (1S,3R,4R,7S)-7-Hydroxy-1-hydroxymethyl-3-(N6-(3-iodobenzyl)-2-chloro-adenin-9-yl)-2,5-dioxabicyclo[2:2:1]heptane], the pIC50 is 6.68.
As to `CNC(=O)[C@]12CO[C@@H]([C@H](n3cnc4c(NCc5cccc(I)c5)nc(Cl)nc43)O1)[C@@H]2O` [SPN0175, (1R,3R,4R,7S)-(7-hydroxy-3-(N6-(3-iodobenzyl)-2-chloro-adenin-9-yl)-2,5-dioxabicyclo[2:2:1]hept-1-yl)-N-methylcarboxamide], the pIC50 is 6.41.
For the molecule `CNC(=O)[C@@]12CO[C@@H]([C@H](n3cnc4c(NCc5cccc(Br)c5)ncnc43)O1)[C@@H]2O` [SPN0186, (1R,3R,4R,7S)-(7-hydroxy-3-(N6-(3-bromobenzyl)-adenin-9-yl)-2,5-dioxabicyclo[2:2:1]hept-1-yl)-N-methylcarboxamide], the pIC50 was 6.20.
As for `CNC(=O)[C@@]12CO[C@@H]([C@H](n3cnc4c(NCc5cccc(I)c5)ncnc43)O1)[C@@H]2N=[N+]=[N-]` [SPN0192, (1S,3R,4R,7S)-(7-azido-3-(N6-(3-iodobenzyl)-adenin-9-yl)-2,5-dioxabicyclo[2:2:1]hept-1-yl)-N-methylcarboxamide], the pIC50 was 6.09.
Then `CNC(=O)[C@@]12CO[C@@H]([C@H](n3cnc4c(NCc5cccc(I)c5)ncnc43)O1)[C@@H]2N` [SPN0195, (1S,3R,4R,7S)-(7-amino-3-(N6-(3-iodobenzyl)-adenin-9-yl)-2,5-dioxabicyclo[2:2:1]hept-1-yl)-N-methylcarboxamide], with 6.17.
The value for `CNC(=O)[C@@]12CN[C@@H]([C@H](n3cnc4c(NCc5cccc(I)c5)ncnc43)O1)[C@@H]2O` [SPN0235, (1R,3R,4R,7S)-(7-hydroxy-3-(N6-(3-iodobenzyl)-adenin-9-yl)-2-oxa-5-azabicyclo[2:2:1]hept-1-yl)-N-methylcarboxamide] was 7.92; that for `CNC(=O)[C@@]12CN[C@@H]([C@H](n3cnc4c(N)ncnc43)O1)[C@@H]2O` [SPN0238, (1R,3R,4R,7S)-(7-hydroxy-3-(adenin-9-yl)-2-oxa-5-azabicyclo[2:2:1]hept-1-yl)-N-methylcarboxamide] was 6.76.
